This data set addresses MRP1 (Multidrug resistance-associated protein 1) (Homo sapiens, UniProt P33527). In words: TP_TRANSPORTER: uptake in membrane vesicle from MRP1-expressing HeLa cells. In kind it is functional, cell membranes. The settings on record: membrane vesicles from MRP1-expressing HeLa cells.

The structures appear in SMILES notation.

MRP1 (Multidrug resistance-associated protein 1), sequence (P33527 whole entry): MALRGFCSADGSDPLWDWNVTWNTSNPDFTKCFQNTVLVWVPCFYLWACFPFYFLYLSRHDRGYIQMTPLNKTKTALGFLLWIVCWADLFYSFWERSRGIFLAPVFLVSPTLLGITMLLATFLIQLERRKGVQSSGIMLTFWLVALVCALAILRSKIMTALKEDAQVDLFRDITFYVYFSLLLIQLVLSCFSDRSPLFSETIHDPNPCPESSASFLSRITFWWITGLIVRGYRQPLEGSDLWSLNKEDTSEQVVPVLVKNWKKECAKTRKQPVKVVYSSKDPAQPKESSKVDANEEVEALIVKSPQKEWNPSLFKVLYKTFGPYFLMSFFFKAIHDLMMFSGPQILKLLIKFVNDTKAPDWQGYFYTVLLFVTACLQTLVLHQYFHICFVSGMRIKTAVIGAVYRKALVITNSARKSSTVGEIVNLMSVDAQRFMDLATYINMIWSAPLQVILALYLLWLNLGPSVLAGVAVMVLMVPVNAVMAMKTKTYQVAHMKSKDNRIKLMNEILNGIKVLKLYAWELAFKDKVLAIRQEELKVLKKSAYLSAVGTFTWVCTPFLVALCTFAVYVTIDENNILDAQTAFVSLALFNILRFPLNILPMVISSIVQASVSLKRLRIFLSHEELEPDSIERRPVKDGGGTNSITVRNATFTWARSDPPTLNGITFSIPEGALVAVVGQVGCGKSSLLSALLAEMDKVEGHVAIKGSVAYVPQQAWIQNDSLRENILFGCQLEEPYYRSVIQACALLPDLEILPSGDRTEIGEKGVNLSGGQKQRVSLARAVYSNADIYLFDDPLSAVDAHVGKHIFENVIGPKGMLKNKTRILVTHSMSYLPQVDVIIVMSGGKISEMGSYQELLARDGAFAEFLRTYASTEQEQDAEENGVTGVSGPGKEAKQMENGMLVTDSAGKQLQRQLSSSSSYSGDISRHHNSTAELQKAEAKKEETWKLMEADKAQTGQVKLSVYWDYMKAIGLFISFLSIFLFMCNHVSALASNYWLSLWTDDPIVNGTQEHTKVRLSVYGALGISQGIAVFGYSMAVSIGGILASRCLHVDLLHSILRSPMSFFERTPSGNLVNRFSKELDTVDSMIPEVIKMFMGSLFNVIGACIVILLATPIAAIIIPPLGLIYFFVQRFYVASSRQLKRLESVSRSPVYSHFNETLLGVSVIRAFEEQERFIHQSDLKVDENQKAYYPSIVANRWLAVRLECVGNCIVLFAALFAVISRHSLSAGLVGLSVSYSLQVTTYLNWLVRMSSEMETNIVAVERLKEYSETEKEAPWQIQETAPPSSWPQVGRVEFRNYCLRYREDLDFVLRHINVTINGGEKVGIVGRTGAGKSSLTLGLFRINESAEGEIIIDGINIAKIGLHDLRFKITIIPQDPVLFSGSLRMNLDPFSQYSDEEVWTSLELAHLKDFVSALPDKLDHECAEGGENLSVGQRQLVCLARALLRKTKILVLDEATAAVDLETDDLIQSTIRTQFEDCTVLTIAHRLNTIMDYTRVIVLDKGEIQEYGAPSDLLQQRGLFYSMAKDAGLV

One may read the Km as the concentration of substrate that gives half-maximal velocity. Regarding `COc1cc2c(c3oc(=O)c4c(c13)CCC4=O)[C@H]1[C@@H](O2)O[C@H](SC[C@@H](NC(=O)CC[C@H](N)C(=O)O)C(=O)NCC(=O)O)[C@H]1O`, the Km came to 0.189 µM.

These data come from ChEMBL document CHEMBL2073841, “ATP-dependent transport of aflatoxin B1 and its glutathione conjugates by the product of the multidrug resistance protein (MRP) gene” (Mol Pharmacol, 1997).
